In US8846694B2, “Pyrrolidone derivatives for use as MetAP-2 inhibitors” (Merck Patent GmbH, priority 2008, dated 2014):
Where a name gives a salt, the structure may show the parent alone.

Each compound was assayed against MetAP-2 (Homo sapiens, UniProt P50579) (assay: MetAP-2 activity measurement (coupled enzymatic reactions, substrate Met-Arg-Ser, photometric at 450 nm)). Conditions: read-out: IC50 enzyme (Inhibition of MetAP-2).
Type: biochemical
Protocol: MetAP-2 Activity Measurement
The MetAP-2 activity is determined by coupling enzymatic reactions. The tripeptide Met-Arg-Ser (MAS) is employed as substrate. The methionine liberated is firstly converted into Metox and H2O2 by L-aminooxidase (AAO). In the second step, the peroxidase (POD) with the aid of the H2O2 catalyses the oxidation of the leukodye dianisidine to dianisidineox, the increase of which is detected photometrically at 450 nm.
MetAP-2 activity can be recorded continuously as kinetics. The reaction scheme illustrates that one mol of dianisidineox is formed per mol of methionene. The MetAP-2 enzyme activity can therefore be calculated directly as Δ absorption per time unit. […] of the MetAP-2 activity (mol of Met/time unit) is possible with the aid of the dianisidineox extinction coefficient.
The change in extinction per time unit is depicted graphically and a slope calculation is carried out in the visually linear region of the reaction.

MetAP-2, sequence (P50579 whole entry, species assumed): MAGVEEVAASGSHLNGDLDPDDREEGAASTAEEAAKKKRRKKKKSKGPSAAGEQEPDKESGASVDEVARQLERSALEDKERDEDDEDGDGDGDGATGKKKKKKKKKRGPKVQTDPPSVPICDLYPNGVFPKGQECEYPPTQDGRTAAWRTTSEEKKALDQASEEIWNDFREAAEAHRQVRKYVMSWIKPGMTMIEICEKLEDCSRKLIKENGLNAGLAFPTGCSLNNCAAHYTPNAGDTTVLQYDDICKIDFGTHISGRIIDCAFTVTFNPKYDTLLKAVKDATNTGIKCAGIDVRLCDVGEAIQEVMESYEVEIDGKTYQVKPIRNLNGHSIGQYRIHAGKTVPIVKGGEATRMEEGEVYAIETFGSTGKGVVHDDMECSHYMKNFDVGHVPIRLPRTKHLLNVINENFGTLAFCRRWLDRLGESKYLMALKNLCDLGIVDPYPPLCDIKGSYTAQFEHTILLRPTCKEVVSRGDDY

Compound	IC50 [µM]
Clc1ccccc1CCC1CCCN1c1ncnc2[nH]cnc12 (racemic) [A5, 6-{2-[2-(2-chlorophenyl)ethyl]pyrrolidin-1-yl}-9H-purine]	1 to 10
c1ccc2c(OC[C@H]3CCCN3c3ncnc4[nH]cnc34)ccc(CN3CCOCC3)c2c1 [A3, 6-[(R)-2-(4-morpholin-4-ylmethylnaphthalen-1-yloxymethyl)pyrrolidin-1-yl]-9H-purine]	0.01 to 1
C(=C\[C@H]1CCCN1c1ncnc2[nH]cnc12)/c1cccc2ccccc12 [A12, 6-[(R)-2((E)-2-naphthalen-1-ylvinyl)pyrrolidin-1-yl]-9H-purine]	1 to 10
O=C(NC1CC1)c1cc(OC[C@H]2CCCN2c2ncnc3[nH]cnc23)c2ccccc2n1 [A14, N-cyclopropyl-4-[(R)-1-(9H-purin-6-yl)pyrrolidin-2-ylmethoxy]quinoline-2-carboxamide hydrochloride]	1 to 10
CCc1nc2c(N3CCC[C@@H]3COc3ccccc3Cl)ncnc2[nH]1 [A17, 6-[(R)-2-(2-Chlorophenoxymethyl)pyrrolidin-1-yl]-8-ethyl-9H-purine HCl]	> 10
Brc1nc2c(N3CCC[C@@H]3COc3cccc4ccccc34)ncnc2[nH]1 [A18, 8-Bromo-6-[(R)-2-(naphthalen-1-yloxymethyl)-pyrrolidin-1-yl]-9H-purine]	> 10
Clc1ccccc1OC[C@H]1CCCN1c1ncnc2ncccc12 [A22]	> 10
c1ccc2c(OC[C@H]3CCCN3c3ncnc4ncccc34)cccc2c1 [A23, 4-[(R)-2-(Naphthalen-1-yloxymethyl)pyrrolidin-1-yl]pyrido[2,3-d]pyrimidine]	> 10
Nn1ccc2c(N3CCC[C@@H]3COc3ccccc3F)ncnc21 [A24, 4-[(R)-2-(2-Fluorophenoxymethyl)pyrrolidin-1-yl]pyrrolo[2,3-d]pyrimidin-7-ylamine]	> 10
F[C@H]1C[C@H](COc2cccc3ccccc23)N(c2ncnc3[nH]cnc23)C1 [A28, 6-[(2R,4S)-4-Fluoro-2-(naphthalen-1-yl-oxymethyl)pyrrolidin-1-yl]-9H-purine]	1 to 10
O=c1ccc(-c2cc(F)cc(F)c2)nn1CC1CCCN1c1ncnc2[nH]cnc12 (stereo not shown) [A32, 6-(3,5-Difluorophenyl)-2-[1-(9H-purin-6-yl)-pyrrolidin-2-ylmethyl]-2H-pyridazin-3-one]	> 10
CC(=O)Nc1nc2ccc(CNC(=O)Nc3cc(C(F)(F)F)ccc3OCC3CCCN3c3ncnc4[nH]cnc34)cc2[nH]1 (stereo not shown) [A33, N-[6-(3-{2-[1-(9H-Purin-6-yl)pyrrolidin-2-yl-methoxy]-5-trifluoromethylphenyl}ureido-methyl)-1H-benzimidazol-2-yl]acetamide]	> 10
CNC(=O)c1cc(Oc2ccc(CNC(=O)Nc3cc(C(F)(F)F)ccc3OCC3CCCN3c3ncnc4[nH]cnc34)cc2)ccn1 (stereo not shown) [A34, N-Methyl-4-[4-(3-{2-[1-(9H-purin-6-yl)pyrrolidin-2-ylmethoxy]-5-trifluoromethyl-phenyl}ureidomethyl)phenoxy]pyridine-2-carboxamide]	> 10
c1ccc2c(c1)oc1cc(OC[C@H]3CCCN3c3ncnc4[nH]cnc34)ccc12 [A37]	1 to 10
CCCCn1c(C)c(C(=O)OCC)c2cc(OC[C@H]3CCCN3c3ncnc4[nH]cnc34)ccc21 [A39, Ethyl 1-butyl-2-methyl-5-[(R)-1-(9H-purin-6-yl)-pyrrolidin-2-ylmethoxy]-1H-indole-3-carboxylate]	1 to 10
CC(=O)c1cc2cccc(OC[C@H]3CCCN3c3ncnc4[nH]cnc34)c2o1 [A41, 1-{7-[(R)-1-(9H-Purin-6-yl)pyrrolidin-2-yl-methoxy]benzofuran-2-yl}ethanone]	0.01 to 1
c1cnc2c(OC[C@H]3CCCN3c3ncnc4[nH]cnc34)ccc(CN3CCCCC3)c2c1 [A42, 5-Piperidin-1-ylmethyl-8-[(R)-1-(9H-purin-6-yl)-pyrrolidin-2-ylmethoxy]quinoline formate]	1 to 10
O=C1CCCc2c(OC[C@H]3CCCN3c3ncnc4[nH]cnc34)cccc21 [A51]	0.01 to 1
O=C(O)/C=C1/CCc2c(OC[C@H]3CCCN3c3ncnc4[nH]cnc34)cccc2C1=O [A53, [1-Oxo-5-[(R)-1-(9H-purin-6-yl)pyrrolidin-2-yl-methoxy]-3,4-dihydro-1H-naphthalen-(2Z)-ylidene]acetic acid]	0.01 to 1
c1cc2c(c(OC[C@H]3CCCN3c3ncnc4[nH]cnc34)c1)CCCC2 [A55, 6-[(R)-2-(5,6,7,8-Tetrahydronaphthalen-1-yl-oxymethyl)pyrrolidin-1-yl]-9H-purine]	0.01 to 1
COCCOc1cccc2c(OC[C@H]3CCCN3c3ncnc4[nH]cnc34)cccc12 [A58, 6-{(R)-2-[5-(2-Methoxyethoxy)naphthalen-1-yl-oxymethyl]pyrrolidin-1-yl}-9H-purine]	0.01 to 1
c1ccc2c(OC[C@H]3CCCN3c3ncnc4[nH]cnc34)ccc(CNCCN3CCOCC3)c2c1 [A60, (2-Morpholin-4-ylethyl)-{4-[(R)-1-(9H-purin-6-yl)-pyrrolidin-2-ylmethoxy]naphthalen-1-yl-methyl}amine]	0.01 to 1

The remaining lines, values ahead:

IC50 [µM]	Compound
0.01 to 1	2-[1-(1H-imidazol-4-yl)meth-(Z)-ylidene]-5-[(R)-1-(9H-purin-6-yl)pyrrolidin-2-ylmethoxy]-3,4-dihydro-2H-naphthalen-1-one [A15]
1 to 10	FC1(F)C[C@H](COc2cccc3ccccc23)N(c2ncnc3[nH]cnc23)C1 [A8, 6-[(R)-4,4-difluoro-2-(naphthalen-1-yloxymethyl)pyrrolidin-1-yl]-9H-purine]
1 to 10	Clc1cccc(/C=C/[C@H]2CCCN2c2ncnc3[nH]cnc23)c1 [A11, 6-{(R)-2-[(E)-2-(3-chlorophenyl)vinyl]pyrrolidin-1-yl}-9H-purine]
> 10	Cc1nc2c(N3CCC[C@@H]3COc3ccccc3Cl)ncnc2[nH]1 [A16, 6-[(R)-2-(2-Chlorophenoxymethyl)pyrrolidin-1-yl]-8-methyl-9H-purine]
> 10	CN(C[C@H]1CCCN1c1ncnc2[nH]cnc12)c1cccc(F)c1 [A21]
1 to 10	Nn1cnc2c(N3CCC[C@@H]3COc3cccc4ccccc34)ncnc21 [A25, 6-[(R)-2-(Naphthalen-1-yloxymethyl)pyrrolidin-1-yl]purin-9-ylamine]
> 10	F[C@@H]1C[C@H](COc2cccc3ccccc23)N(c2ncnc3[nH]cnc23)C1 [A26, 6-[(2R,4R)-4-Fluoro-2-(naphthalen-1-yl-oxymethyl)pyrrolidin-1-yl]-9H-purine]
> 10	F[C@@H]1C[C@H](COc2ccccc2Cl)N(c2ncnc3[nH]cnc23)C1 [A27, 6-[(2R,4R)-2-(2-Chlorophenoxymethyl)-4-fluoro-pyrrolidin-1-yl]-9H-purine]
> 10	O[C@@H]1C[C@H](COc2cccc3ccccc23)N(c2ncnc3[nH]cnc23)C1 [A30, (3R,5R)-5-(Naphthalen-1-yloxymethyl)-1-(9H-purin-6-yl)pyrrolidin-3-ol]
0.01 to 1	c1ccc2c(c1)[nH]c1cccc(OC[C@H]3CCCN3c3ncnc4[nH]cnc34)c12 [A38, 4-[(R)-1-(9H-Purin-6-yl)pyrrolidin-2-ylmethoxy]-9H-carbazole]
1 to 10	c1cc(OC[C@H]2CCCN2c2ncnc3[nH]cnc23)c2cc[nH]c2c1 [A40, 6-[(R)-2-(1H-lndol-4-yloxymethyl)pyrrolidin-1-yl]-9H-purine]
1 to 10	c1cnc2c(OC[C@H]3CCCN3c3ncnc4[nH]cnc34)cccc2c1 [A43, 8-[(R)-1-(9H-Purin-6-yl)pyrrolidin-2-yl-methoxy]quinoline]
> 10	COc1cc2c(OC[C@H]3CCCN3c3ncnc4[nH]cnc34)ncnc2cc1OCc1ccccc1 [A45, 7-Benzyloxy-6-methoxy-4-[(R)-1-(9H-purin-6-yl)-pyrrolidin-2-ylmethoxy]quinazoline]
1 to 10	NCCOCCOCCNCc1ccc(OC[C@H]2CCCN2c2ncnc3[nH]cnc23)c2ccccc12 [A47, 2-{2-[2-({4-[(R)-1-(9H-Purin-6-yl)pyrrolidin-2-yl-methoxy]naphthalen-1-ylmethyl}-amino)ethoxy]ethoxy}ethylamine]
0.01 to 1	CNC(=O)c1cc(OC[C@H]2CCCN2c2ncnc3[nH]cnc23)c2ccccc2n1 [A48, N-Methyl-4-[(R)-1-(9H-purin-6-yl)pyrrolidin-2-yl-methoxy]quinoline-2-carboxamide formate]
1 to 10	Cc1ccc2cccc(OC[C@H]3CCCN3c3ncnc4[nH]cnc34)c2n1 [A49, 2-Methyl-8-[(R)-1-(9H-purin-6-yl)pyrrolidin-2-yl-methoxy]quinoline]
0.01 to 1	CCNC(=O)c1cc(OC[C@H]2CCCN2c2ncnc3[nH]cnc23)c2ccccc2n1 [A50, N-Ethyl-4-[(R)-1-(9H-purin-6-yl)pyrrolidin-2-yl-methoxy]quinoline-2-carboxamide formate]
1 to 10	c1cc(OC[C@H]2CCCN2c2ncnc3[nH]cnc23)c2nccc(CN3CCOCC3)c2c1 [A56, 4-Morpholin-4-ylmethyl-8-[(R)-1-(9H-purin-6-yl)-pyrrolidin-2-ylmethoxy]quinoline]
0.01 to 1	Clc1ncc(OC[C@H]2CCCN2c2ncnc3[nH]cnc23)c2ccccc12 [A57, 1 -Chloro-4-[(R)-1-(9H-purin-6-yl)pyrrolidin-2-yl-methoxy]isoquinoline]
> 10	O=c1c2ccccc2ccn1C[C@H]1CCCN1c1ncnc2[nH]cnc12 [A59, 2-[(R)-1-(9H-Purin-6-yl)pyrrolidin-2-ylmethyl]-2H-isoquinolin-1-one]
> 10	c1ccc2c(OC[C@H]3CCCN3c3ncnc4[nH]cnc34)c(CN3CCCCC3)ccc2c1 [A61, 6-[(R)-2-(2-Piperidin-1-ylmethylnaphthalen-1-yloxymethyl)pyrroiidin-1-yl]-9H-purine]
